Read-outs that look alike come from different tables or passages of the source.

The target in this test is neuronal NOS (Homo sapiens, UniProt P29475). As to the kind of experiment: Inhibition of NO synthase activity by conversion of [3H]arginine to [3H]citrulline (crude enzyme lysate). Type of test: biochemical.
Chain of neuronal NOS (P29475 whole entry): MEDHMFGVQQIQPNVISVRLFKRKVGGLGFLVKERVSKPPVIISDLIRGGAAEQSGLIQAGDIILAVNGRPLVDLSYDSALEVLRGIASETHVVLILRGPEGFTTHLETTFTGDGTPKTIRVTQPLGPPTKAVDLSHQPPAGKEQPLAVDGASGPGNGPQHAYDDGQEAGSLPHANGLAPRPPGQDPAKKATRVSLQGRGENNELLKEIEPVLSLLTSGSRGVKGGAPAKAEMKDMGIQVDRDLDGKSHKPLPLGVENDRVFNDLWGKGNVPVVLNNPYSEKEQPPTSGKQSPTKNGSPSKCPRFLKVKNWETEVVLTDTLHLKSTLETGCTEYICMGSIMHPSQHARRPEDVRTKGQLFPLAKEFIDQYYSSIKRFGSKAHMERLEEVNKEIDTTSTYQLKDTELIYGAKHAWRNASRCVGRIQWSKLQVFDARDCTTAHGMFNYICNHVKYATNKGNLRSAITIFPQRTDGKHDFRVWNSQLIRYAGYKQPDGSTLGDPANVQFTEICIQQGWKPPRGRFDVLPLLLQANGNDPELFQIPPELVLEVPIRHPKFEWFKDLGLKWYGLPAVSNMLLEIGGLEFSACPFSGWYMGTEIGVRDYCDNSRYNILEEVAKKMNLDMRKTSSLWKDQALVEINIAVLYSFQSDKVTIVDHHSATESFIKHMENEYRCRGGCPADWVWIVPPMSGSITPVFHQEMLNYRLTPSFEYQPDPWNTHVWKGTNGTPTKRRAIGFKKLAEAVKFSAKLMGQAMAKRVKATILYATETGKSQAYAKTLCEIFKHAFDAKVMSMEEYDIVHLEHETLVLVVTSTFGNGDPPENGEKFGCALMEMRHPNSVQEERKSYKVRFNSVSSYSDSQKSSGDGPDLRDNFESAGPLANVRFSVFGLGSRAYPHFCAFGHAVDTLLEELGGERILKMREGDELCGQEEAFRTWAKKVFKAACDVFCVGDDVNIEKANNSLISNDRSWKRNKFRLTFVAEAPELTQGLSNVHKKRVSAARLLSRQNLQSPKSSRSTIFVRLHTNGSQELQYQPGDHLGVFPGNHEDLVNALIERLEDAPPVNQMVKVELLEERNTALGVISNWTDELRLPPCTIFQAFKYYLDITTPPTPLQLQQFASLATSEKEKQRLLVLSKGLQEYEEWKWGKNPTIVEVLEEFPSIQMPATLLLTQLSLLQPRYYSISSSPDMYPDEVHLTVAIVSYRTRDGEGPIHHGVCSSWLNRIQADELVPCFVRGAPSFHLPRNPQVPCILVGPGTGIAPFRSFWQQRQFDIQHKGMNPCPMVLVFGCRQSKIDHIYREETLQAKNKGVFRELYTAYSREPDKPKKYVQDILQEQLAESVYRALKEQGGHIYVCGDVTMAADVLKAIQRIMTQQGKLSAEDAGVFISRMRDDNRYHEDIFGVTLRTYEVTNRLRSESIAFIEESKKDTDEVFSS

Description: The ability of the compounds of the present invention to inhibit neuronal NOS may be determined using the procedure described by Bredt and Snyder in Proc. Natl. Acad. Sci. U.S.A., 87, 682-685 (1990).
As indicated above, inhibition of NO synthase activity may be determined by conversion of [^3H]arginine to [^3H]citrulline as described by Bredt and Snyder in Proc. Natl. Acad. Sci. U.S.A., 87, 682-685 (1990), but with slight modification. Specifically, 10 uL of crude enzyme lysate and 10 uL of 350 nM [^3H]arginine are added to 100 uL of buffer containing 10 mM Hepes, 0.32 M sucrose, 0.75 mM NADPH, 0.1 mM EDTA, 0.63 mM CaCl2, 1 mM dithiothreitol, 30 nM calmodulin(CaM), 2 uM Flavin Adenin dinucleotie (FAD), 2 uM Flavin mononucleotide (FMN), 3 uM tetrahydrobiopterin (H4B) and trace bovine serum albumin in 96-well plate format. After incubation for 50 minutes at 30°C, assays are terminated by application to 75 uL BioRex-70 resin (H^+ form) and eluted with 90 uL of water. [^3H]citrulline may be quantified by liquid scintillation spectroscopy of the total flow-through.

On to `CCc1cc(-c2cccc(N)n2)c(OC)cc1OC1CNC1` [Example 1, 6-[4-(3-azetidinoxy)-5-ethyl-2-methoxy-phenyl]-pyridin-2-ylamine], for which the IC50 (crude enzyme lysate, [3H]arginine to [3H]citrulline, 50 minutes at 30°C, read-out: IC50 for inhibition of neuronal NOS) was found to be 36 nM.
As to `CCc1cc(-c2cccc(N)n2)c(OC)cc1CNC` [Example 3, 6-[4-(N-methylaminomethyl)-5-ethyl-2-methoxy-phenyl]-pyridin-2-ylamine], the half-inhibitory concentration (IC50) turned out to be 30 nM.

As a reminder, the IC50 is the concentration needed to halve the response being measured.
